From patent publication US20240376097A1, “BCL-2 Inhibitor” (BeiGene Ltd., priority 2020, published 2024) come the findings set out here.

The target of test [1] is Recombinant human Bcl-2 protein (Homo sapiens (Human), UniProt P10415). Kind of test: Bcl-2 TR-FRET Assay. In kind it is binding. As to conditions: Bcl-2 wild type, TR-FRET; read-out: Biochemical assay (IC50, nM) Bcl-2 WT. The procedure, abridged: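 0.05 nM Bcl-2 pre-incubated 0.5 h at room temperature with 10-point compound dilutions (top final 1, 0.1, 0.02 or 0.01 uM) in 20 mM potassium phosphate pH 7.5, 50 mM NaCl, 1 mM EDTA, 0.05% Tween-20, 0.01% BSA; FITC-Bak peptide (0.5 nM) and anti-6His Tb cryptate added, 1 h. IC50 from four-parameter logistic fit.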
In general terms: TR-FRET usually uses a lanthanide donor and a delayed reading to cut background.

Test [2] concerns recombinant human Bcl-2-G101V protein. As to the kind of experiment: Bcl-2-G101V TR-FRET Assay. As to conditions: ratio of biochemical IC50 Bcl-2 G101V / Bcl-2 WT. In kind it is binding. The procedure, abridged:
(§1)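 Measures how compounds block Bcl-2-G101V engaging its ligand, by TR-FRET with 337 nm excitation and a 490/520 nm emission ratio; dose-response data give IC50 via a four-parameter logistic model.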

In test [3] the target is recombinant human Bcl-2-G101V protein (Homo sapiens (Human), UniProt P10415, G101V). As to the kind of experiment: Bcl-2-G101V TR-FRET Assay. The conditions noted are these: Bcl-2 G101V mutant, TR-FRET; read-out: Biochemical assay (IC50, nM) Bcl-2 G101V. In kind it is binding. The procedure, abridged:
as §1

Test [4] has as its system BCL-2 G101V knock-in cell line H96 (derive from RS4;11). As to the kind of experiment: Bcl 2-G101V Knock-In RS4;11 Cell Proliferation Assay. It counts as cell-based. The conditions noted are these: Homo sapiens, RS4;11 Bcl-2 G101V knock-in clone H96, 48 hrs, CellTiter-GLO, read-out: Cellular proliferation assay (IC50, nM) RS4. In a few lines: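 H96, a CRISPR-generated RS4;11 clone carrying BCL2-G101V knock-in (WES/RNA-seq validated), seeded 50,000 per well and exposed 48 h at 37 °C to 10-point dilutions topping at 1 or 10 μM. Viability by CellTiter-Glo luminescence; mean IC50.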
Background: In ATP-based viability assays light output follows the ATP content of the culture.

The test system of test [5] is RS4;11 (BCL-2 dependent acute lymphoblastic leukemia cell line). As to the kind of experiment: RS4;11 Cell Proliferation Assay. In kind it is cell-based. As to conditions: Homo sapiens, RS4-11, RS4;11 cells, read-out: Cellular proliferation assay (IC50, nM) RS4. In a few lines:
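RS4;11 cells, 50,000 per well in RPMI-1640 with 10% FBS, treated 48 h at 37 °C with a 10-point dilution series topping at 1 μM. Viability read by CellTiter-Glo ATP luminescence; mean IC50 reported.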

Consider `COc1ccc(CN2CCN(C3CC4(C3)CN(c3ccc(C(=O)NS(=O)(=O)c5ccc(NC[C@H]6CC[C@](C)(O)CC6)c([N+](=O)[O-])c5)c(Oc5cnc6[nH]cc(F)c6c5)c3)C4)[C@@H](c3ccccc3C(C)C)C2)cc1OC` [Example 141b, 4-(6-((S)-4-(3,4-dimethoxybenzyl)-2-(2-isopropylphenyl)piperazin-1-yl)-2-azaspiro[3.3]heptan-2-yl)-2-((3-fluoro-1H-pyrrolo[2,3-b]pyridin-5-yl)oxy)-N-((4-((((1r,4r)-4-hydroxy-4-methylcyclohexyl)methyl)amino)-3-nitrophenyl)sulfonyl)benzamide], for which the IC50 amounted to 0.059 nM in test [1], 2.3 nM in test [3], 4.09 nM in test [4] and 0.659 nM in test [5]. For the same compound, in test [2], the “Ratio of Bcl-2 G101V/WT” value came out at 40.
The corresponding values for `COc1cc(CN2CCN(C3CC4(CCN(c5ccc(C(=O)NS(=O)(=O)c6ccc(NC[C@H]7CC[C@](C)(O)CC7)c([N+](=O)[O-])c6)c(Oc6cnc7[nH]cc(F)c7c6)c5)CC4)C3)C(c3ccccc3C(C)C)C2)ccc1C1CC1` (stereo partly shown) [Example 161, 4-(2-(4-(4-cyclopropyl-3-methoxybenzyl)-2-(2-isopropylphenyl)piperazin-1-yl)-7-azaspiro[3.5]nonan-7-yl)-2-((3-fluoro-1H-pyrrolo[2,3-b]pyridin-5-yl)oxy)-N-((4-((((1r,4r)-4-hydroxy-4-methylcyclohexyl)methyl)amino)-3-nitrophenyl)sulfonyl) benzamide] are 0.42 nM, 3.9 nM, 1.22 nM, 0.46 nM and 6.8.
Turning to `CCc1cc(CN2CCN(C3CC4(CCN(c5ccc(C(=O)NS(=O)(=O)c6ccc(NC[C@H]7CC[C@](C)(O)CC7)c([N+](=O)[O-])c6)c(Oc6cnc7[nH]ccc7c6)c5)CC4)C3)C(c3ccccc3C(C)C)C2)ccc1OC` (stereo partly shown) [Example 116, 2-((1H-pyrrolo[2,3-b]pyridin-5-yl)oxy)-4-(2-(4-(3-ethyl-4-methoxybenzyl)-2-(2-isopropylphenyl)piperazin-1-yl)-7-azaspiro[3.5]nonan-7-yl)-N-((4-((((1r,4r)-4-hydroxy-4-methylcyclohexyl)methyl)amino)-3-nitrophenyl)sulfonyl)benzamide], the IC50 was found to be 0.42 nM in test [1], 2 nM in test [3], 4.76 nM in test [4] and 0.58 nM in test [5]. The “Ratio of Bcl-2 G101V/WT” value in test [2] is listed as 4.7.
For the compound `COc1ccc(CN2CCN(C3CC4(CCN(c5ccc(C(=O)NS(=O)(=O)c6ccc(NCC7CCOCC7)c([N+](=O)[O-])c6)c(Oc6cnc7[nH]ccc7c6)c5)CC4)C3)[C@H](c3ccccc3C(C)C)C2)cc1` (single isomer, unassigned) [Example 69, (R or S)-2-((1H-pyrrolo[2,3-b]pyridin-5-yl)oxy)-4-(2-(2-(2-isopropylphenyl)-4-(4-methoxybenzyl)piperazin-1-yl)-7-azaspiro[3.5]nonan-7-yl)-N-((3-nitro-4-(((tetrahydro-2H-pyran-4-yl)methyl)amino)phenyl)sulfonyl) benzamide], the IC50 in test [1] worked out at 0.041 nM; in test [3] it was 0.37 nM; in test [4] it was 2 nM; in test [5], 0.47 nM. Further, the “Ratio of Bcl-2 G101V/WT” value in test [2] came to 8.9.
On the same counts, the results for `CC(C)c1ccccc1C1CN(C(=O)c2ccccc2)CCN1C1CC2(CCN(c3ccc(C(=O)NS(=O)(=O)c4ccc(NC[C@H]5CC[C@](C)(O)CC5)c([N+](=O)[O-])c4)c(Oc4cnc5[nH]ccc5c4)c3)CC2)C1` (stereo partly shown) [Example 60] are 0.057 nM, 1.6 nM, 2.52 nM, 0.35 nM and 28.1.
On the same counts, the results for `COc1cc(CN2CCN(C3CC4(C3)CN(c3ccc(C(=O)NS(=O)(=O)c5ccc(NC[C@H]6CC[C@](C)(O)CC6)c([N+](=O)[O-])c5)c(Oc5cnc6[nH]ccc6c5)c3)C4)[C@H](c3ccccc3C(C)C)C2)ccc1C(C)C` [Example 270, 2-((1H-pyrrolo[2,3-b]pyridin-5-yl)oxy)-N-((4-((((1r,4r)-4-hydroxy-4-methylcyclohexyl)methyl)amino)-3-nitrophenyl)sulfonyl)-4-(6-((R)-4-(4-isopropyl-3-methoxybenzyl)-2-(2-isopropylphenyl)piperazin-1-yl)-2-azaspiro[3.3]heptan-2-yl) benzamide] are 1.1 nM, 2.9 nM, 0.64 nM, 0.16 nM and 2.6.
For the compound `COc1cc(CN2CCN(C3CC4(C3)CN(c3ccc(C(=O)NS(=O)(=O)c5ccc(NC[C@H]6CC[C@](C)(O)CC6)c([N+](=O)[O-])c5)c(Oc5cnc6[nH]cc(F)c6c5)c3)C4)[C@H](c3ccccc3C(C)C)C2)ccc1C(C)C` [Example 269, 2-((3-fluoro-1H-pyrrolo[2,3-b]pyridin-5-yl)oxy)-N-((4-((((1r,4r)-4-hydroxy-4-methylcyclohexyl)methyl)amino)-3-nitrophenyl)sulfonyl)-4-(6-((R)-4-(4-isopropyl-3-methoxybenzyl)-2-(2-isopropylphenyl)piperazin-1-yl)-2-azaspiro[3.3]heptan-2-yl) benzamide], the IC50 in test [1] was 2.1 nM; in test [3], 4.9 nM; in test [4], 0.41 nM; in test [5] it was 0.17 nM. Further, the “Ratio of Bcl-2 G101V/WT” value in test [2] amounted to 2.4.
On the same counts, the results for `COc1cc(CN2CCN(C3CC4(C3)CN(c3ccc(C(=O)NS(=O)(=O)c5ccc(NC[C@H]6CC[C@](C)(O)CC6)c([N+](=O)[O-])c5)c(Oc5cnc6[nH]cc(F)c6c5)c3)C4)[C@H](c3ccccc3C(C)C)C2)cc2c1OCCCO2` [Example 335, 2-((3-fluoro-1H-pyrrolo[2,3-b]pyridin-5-yl)oxy)-N-((4-((((1r,4r)-4-hydroxy-4-methylcyclohexyl)methyl)amino)-3-nitrophenyl)sulfonyl)-4-(6-((R)-2-(2-isopropylphenyl)-4-((9-methoxy-3,4-dihydro-2H-benzo[b][1,4]dioxepin-7-yl)methyl)piperazin-1-yl)-2-azaspiro[3.3]heptan-2-yl) benzamide] are 0.06 nM, 0.15 nM, 0.34 nM, 0.17 nM and 2.6.
The corresponding values for `CCc1ccc(CN2CCN(C3CC4(CCN(c5ccc(C(=O)NS(=O)(=O)c6ccc(NC[C@H]7CC[C@](C)(O)CC7)c([N+](=O)[O-])c6)c(Oc6cnc7[nH]ccc7c6)c5)CC4)C3)[C@H](c3ccccc3C(C)C)C2)cc1OC` [Example 265, 2-((1H-pyrrolo[2,5-b]pyridin-5-yl)oxy)-4-(2-((R)-4-(4-ethyl-3-methoxybenzyl)-2-(2-isopropylphenyl)piperazin-1-yl)-7-azaspiro[3.5]nonan-7-yl)-N-((4-((((1r,4r)-4-hydroxy-4-methylcyclohexyl)methyl)amino)-3-nitrophenyl)sulfonyl)benzamide] are 0.66 nM, 1.9 nM, 0.65 nM, 0.15 nM and 3.
Consider `CC(C)c1ccccc1C1CN(Cc2cccc3c2OCCC3)CCN1C1CC2(CCN(c3ccc(C(=O)NS(=O)(=O)c4ccc(NC[C@H]5CC[C@](C)(O)CC5)c([N+](=O)[O-])c4)c(Oc4cnc5[nH]ccc5c4)c3)CC2)C1` (stereo partly shown) [Example 130, 2-((1H-pyrrolo[2,3-b]pyridin-5-yl)oxy)-4-(2-(4-(chroman-8-ylmethyl)-2-(2-isopropylphenyl)piperazin-1-yl)-7-azaspiro[3.5]nonan-7-yl)-N-((4-((((1r,4r)-4-hydroxy-4-methylcyclohexyl)methyl)amino)-3-nitrophenyl)sulfonyl)benzamide], for which the IC50 in test [1] came out at 0.57 nM; in test [3], 1.9 nM; in test [4], 2.8 nM; in test [5], 0.34 nM. For the same compound, the “Ratio of Bcl-2 G101V/WT” value in test [2] came out at 3.4.
On the same counts, the results for `CCc1ccc(CN2CCN(C3CC4(C3)CN(c3ccc(C(=O)NS(=O)(=O)c5ccc(NC[C@H]6CC[C@](C)(O)CC6)c([N+](=O)[O-])c5)c(Oc5cnc6[nH]ccc6c5)c3)C4)[C@H](c3ccccc3C(C)C)C2)cc1OC` [Example 271, 2-((1H-pyrrolo[2,3-b]pyridin-5-yl)oxy)-4-(6-((R)-4-(4-ethyl-3-methoxybenzyl)-2-(2-isopropylphenyl)piperazin-1-yl)-2-azaspiro[3.3]heptan-2-yl)-N-((4-((((1r,4r)-4-hydroxy-4-methylcyclohexyl)methyl)amino)-3-nitrophenyl)sulfonyl)benzamide] are 0.47 nM, 1.5 nM, 0.4 nM, 0.11 nM and 3.1.
